Measurements reported in PubChem BioAssay (NCI).
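Test compounds were applied to cells in 96-well plates for 48 hours at 5 doses. At the GI50, growth is halved. At the TGI there is no net growth.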

Assays:
Assay in all cases: growth of human tumour cells (NCI), 48 h
786-0 renal = tested on: 786-0 renal
SR leukemia = tested on: SR leukemia
OVCAR-3 ovarian = tested on: OVCAR-3 ovarian
RXF 393 renal = tested on: RXF 393 renal
M14 melanoma = tested on: M14 melanoma
CCRF-CEM leukemia = tested on: CCRF-CEM leukemia
SNB-75 CNS = tested on: SNB-75 CNS
TK-10 renal = tested on: TK-10 renal
UO-31 renal = tested on: UO-31 renal
HOP-92 NSCLC = tested on: HOP-92 NSCLC

Structure (SMILES)	TGI (786-0 renal) [µM]	TGI (SR leukemia) [µM]	TGI (OVCAR-3 ovarian) [µM]	TGI (RXF 393 renal) [µM]	TGI (M14 melanoma) [µM]	TGI (CCRF-CEM leukemia) [µM]	TGI (SNB-75 CNS) [µM]	TGI (TK-10 renal) [µM]	TGI (UO-31 renal) [µM]	GI50 (HOP-92 NSCLC) [µM]	TGI (HOP-92 NSCLC) [µM]	GI50 (786-0 renal) [µM]	GI50 (OVCAR-3 ovarian) [µM]	GI50 (RXF 393 renal) [µM]	GI50 (M14 melanoma) [µM]	GI50 (SNB-75 CNS) [µM]	GI50 (TK-10 renal) [µM]	GI50 (UO-31 renal) [µM]	GI50 (CCRF-CEM leukemia) [µM]	GI50 (SR leukemia) [µM]
COC(=O)CC1CCN(C#N)CC1CC[N+](=O)[O-] (stereo unspecified)	> 100	> 100	> 100	> 100	> 100	> 100	> 100	> 100	> 100											
N#CC1C(C#N)C2(c3ccccc3)C(c3ccccc3)=NN(c3ccccc3)CC12 (stereo unspecified)	> 100	> 100	> 100	> 100	> 100	> 100	> 100	> 100	> 100											
COc1ccc(C(=O)Cn2c(C(=O)c3ccccc3)nc(-c3ccc(OC)cc3)c2-c2ccc(OC)cc2)cc1	> 100		> 100	49.2	> 100		38.4	> 100	> 100	24.5	60.4	46.1	> 100	19.9	> 100	7.71	> 100	> 100		
O=C(COc1ccc(Br)cc1Br)N1N=C(c2ccc([N+](=O)[O-])o2)CC1(O)c1ccccc1 (stereo unspecified)	44.1	8.77	20.2	15.7	21.9	14.8	45		21.3											
N#CCCN(CCC#N)c1ccc(/C=C2\N=C(c3cc([N+](=O)[O-])ccc3Cl)OC2=O)cc1	> 100	56.7	70.7		> 100		> 100		> 100											
CCN(CCO)CC1CCCC2CCCCC21 (stereo unspecified)	> 100		> 100	> 100	> 100		> 100	> 100	> 100		> 100									
CCCCCN(CCCCC)CCCNc1c2c(nc3ccc(Cl)cc13)CCCC2	13.6		4.36	7.95	3.41		11.9	7.24	10.2	1.19	5.63	3.91	1.96	2.82	1.8	2.38	2.4	1.93		
CCCCC(=O)OCC(=O)[C@]1(O)Cc2c(O)c3c(c(O)c2[C@@H](OC2CC(NC(=O)C(F)(F)F)C(O)C(C)O2)C1)C(=O)c1c(OC)cccc1C3=O (stereo partly specified)	1.35		20.1	2.62	8.62	> 73.6	4.37	15.1	3.45		3.88									
Cc1cc(C)nc(NS(=O)(=O)c2ccc(NC(=O)c3ccc(Cl)c4c(Nc5ccc(S(=O)(=O)Nc6nc(C)cc(C)n6)cc5)c5ccccc5nc34)cc2)n1	20.4		> 100	4.83	6.95	> 100	> 100	83.1	57.4		5.93									
COc1ccccc1C12OC(=O)C1(C)Oc1ccccc1C2=O (stereo unspecified)	> 100		> 100	> 100	> 100	> 100	> 100	> 100	> 100		> 100									
O=C(N/C(=C\c1ccc(/C=C(\NC(=O)c2ccccc2)c2nc3cc([N+](=O)[O-])ccc3[nH]2)cc1)c1nc2cc([N+](=O)[O-])ccc2[nH]1)c1ccccc1	> 100		> 100	> 100	> 100	> 100	> 100	78.5	> 100		> 100									
COC1(OC)CCC2C1C1CCC(OC)(OC)C21 (stereo unspecified)	> 50		> 50	> 50	> 50	> 50	> 50		> 50		> 50									
COc1cc(Cc2cnc(/N=C3\C(=O)N(CN4CCN(c5c(F)cc6c(=O)c(C(=O)O)cn(C7CC7)c6c5OC)CC4C)c4ccc(F)cc43)nc2N)cc(OC)c1OC (stereo unspecified)	23.1		22.1	49.1	22	4.26		25.3	> 100	7.64	21.8	11.1	5.87	16	10.3		11.6	31.7	1.3	
COC1CCC2C(NS(=O)(=O)c3ccc(C)cc3)CCCC2O1 (stereo unspecified) (tested in a mixture with another compound)	> 34.5		> 34.5	> 34.5	> 34.5	> 34.5	> 34.5	> 34.5	> 34.5		28									
COc1ccc2c(C3=C(c4cn(C)c5ccccc45)C(=O)NC3=O)cn(C)c2c1	> 25	> 25	1.03		> 25	> 25	> 25	> 25	> 25			0.255	0.0841		0.0999	0.0567	> 25	3.69	0.0961	0.0717
Clc1cc2nsnc2c(Cl)n1	31.2		33.4		29	27.1		44	39.8		33.1									
O=C(O)CCc1coc2ccc(O)cc12	> 100		> 100	> 100	> 100	> 100	> 100	> 100			> 100									
COc1cc(/C=N/NC(=O)c2ccc(C(F)(F)F)nc2Nc2ccc(Cl)cc2C)ccc1O	9.93		13	14.3	14.6	3.12	21.3	17.3	7.76	1.59	7.58	2.64	1.74	3.2	3.76	4.79	5.13	1.39	0.416	
CC(=O)NNc1nc(C)c(C(=O)NNC(=O)C(=O)Nc2c(Cl)cc([N+](=O)[O-])cc2Cl)s1	> 100	> 100	52.8		> 100	93.4		> 100	87.1		56.2									
Cc1nc2ccccc2c(=O)n1-c1ccccc1I	> 100	> 100	> 100		> 100	> 100	> 100	> 100	> 100											
